# How the values were obtained:
# [1] = system: MDA-MB-231 cells over-expressing PHGDH; test: Intracellular serine in MDA-MB-231 cells expressing PHGDH, medium lacking serine and glycine (LC-MS); format: cell-based, human; conditions: media lacking serine and glycine
# Experimental: To examine target engagement of PHGDH inhibitors in cells, MDA-MB-231 cells that lack detectable expression of PHGDH and MDA-MB-231 cells that stably express full-length human PHGDH (MDA-MB-231-PHGDH) were treated with PHGDH inhibitors in RPMI lacking serine and glycine. A MDA-MB-231 cell line was constructed which expresses PHGDH for comparison against the MDA-MB-231 empty vector line. MDA-MB-231 breast cancer cells were infected with PHGDH-expressing retrovirus.
# MDA-MB-231 cells are incapable of synthesizing serine, but the addition of PHGDH permits these cells to synthesize serine. […] Concentrations of serine were determined by comparison with signals of internal standards and calibration curves. PHGDH inhibition reduces steady-state levels of intracellular serine in MDA-MB-231 cells over-expressing PHGDH. Studies were also performed in MDA-MB-468 cells, which over-express PHGDH and are PHGDH-dependent.
# Cells were evenly seeded at 400,000 cells per well of a 6-well plate and allowed to attach for 24 hours. Prior to all labeling experiments, cells were pretreated with 10 μM compound or an equivalent volume of DMSO in RPMI for 1 hour. For steady-state metabolite concentrations, cells were washed with PBS prior to pretreatment and treatment in RPMI lacking serine and glycine. For labeling experiments, U-^13C-glucose, U-^13C-serine, or U-^13C-glycine replaced the corresponding unlabeled RPMI component. Cells were washed in 4° C. […] Triplicate identically seeded wells were trypsinzed and analyzed with a Multisizer Coulter Counter (Beckman Coulter) to obtain cell counts and total cell volumes for normalization.
# Dried metabolites were resuspended in 100 μL water, centrifuged at 13,000×g at 4° C. for 10 minutes, and the supernatant recovered for analysis. […] Metabolites were monitored using a polarity-switching full-scan method and identified by accurate mass (±20 ppm) and retention time within 15 seconds of a previously run pure standard. […]
# [2] = system: MDA-MB-468 orthotopic xenografts; test: MDA-MB-468 orthotopic xenografts; format: in vivo, mouse; conditions: 40 mg/kg daily, IP
# Experimental: (§1) Female NOD.CB17-Prkdc^scid/J mice, 6-8 weeks old, were obtained from Jackson Laboratories. All animals were provided with food ad libitum for the duration for the duration of the experiment. The animals were allocated randomly for induction with MDA-MB-231 or MDA-MB-468 tumors and tumor group was assigned blindly. 500,000 MDA-MB-231 or MDA-MB-468 cells were injected into the 4th mammary fat pad of each mouse. After 30 days, the tumors were palpable, and the mice were pooled by tumor type and divided randomly to two groups, which were assigned blindly to vehicle or NCT-503 treatment. […] Caliper measurements were obtained twice weekly and tumor volumes were calculated with the modified ellipsoid formula: volume=0.5×width^2×length.
# (§2) For quantitation of necrotic regions, fixed tumors were embedded and sections stained with hematoxylin and eosin. Slides were scanned with a Leica Aperio AT2 brightfield scanner. Tumor and necrotic cross-sectional regions were manually delineated and measured using Leica ImageScope software to calculate the percentage of necrosis.
# panel of 168 GPCRs = test: Cross-reactivity in a panel of 168 GPCRs
# [3] = system: panel of other dehydrogenases; test: Panel of other dehydrogenases; format: biochemical
# [4] = Body weight of treated xenograft mice; format: in vivo, mouse; conditions: 24-day treatment
# Experimental: as §1
# [5] = system: MDA-MB-231 orthotopic xenografts; test: MDA-MB-231 orthotopic xenografts; format: in vivo, mouse; conditions: 40 mg/kg daily, IP
# Experimental: as §1, §2
# GPD1 = GPD1 (Homo sapiens (Human), UniProt P21695); test: Counter-screen against GPD1; format: biochemical; conditions: Table E11
# Experimental: GAPDH substrate buffer contained 210 mM Tris pH 7.4, 2.5 mM NaH2PO4 pH 7.4, 2 mM DL-Glyceraldehyde 3-phosphate, 1.75 mM MgCl2, 0.01 mM NAD+, 0.11 mM resazurin, 0.2 mg/mL BSA, and 0.01% Tween-20. GAPDH enzyme buffer contained 50 mM Tris pH 7.4, 100 mM NaCl, 0.02 mM TCEP, 0.01 mM EDTA, 0.1 mg/mL BSA, 0.42 mg/mL diaphorase, and 2.5 nM GAPDH. The GAPDH, GPD1, and GPD1L assays were run in 384-well plates using the same protocol and readout as the PHGDH assay. […] GPD1 enzyme buffer contained 50 mM Tris pH 7.4, 100 mM NaCl, 0.08 mM TCEP, 0.4 mg/mL BSA, 0.03 μM EDTA, and 0.8 nM GPD1. 70 μL of substrate buffer were mixed with 10 μL enzyme buffer. GPD1L substrate buffer contained 200 mM Tris pH 7.4, 0.05 mM sn-G3-P, 2 mM MgCl2, 0.04 mM NAD+, 0.11 mM resazurin, 0.1 mg/mL BSA, and 0.02% Tween-20. GPD1L enzyme buffer contained 50 mM Tris pH 7.4, 100 mM NaCl, 0.02 mM TCEP, 0.42 mg/mL diaphorase, 0.1 mg/mL BSA, 0.008 μM EDTA, and 16 nM GPD1L. 40 μL of substrate buffer were mixed with 40 μL of enzyme buffer.
# The GAPDH and GPD1L assays were read using the same protocol as the PHGDH assay. The GPD1 assay was read using loss of NADH fluorescence (λex=340 nm and λem=460 nm).
# C234S PHGDH = C234S PHGDH (Homo sapiens (Human), UniProt O43175, C234S); test: Inhibition of C234S mutant PHGDH in vitro; format: biochemical; conditions: C234S vs wild type PHGDH
# Sequence of C234S PHGDH (O43175 whole entry C234S): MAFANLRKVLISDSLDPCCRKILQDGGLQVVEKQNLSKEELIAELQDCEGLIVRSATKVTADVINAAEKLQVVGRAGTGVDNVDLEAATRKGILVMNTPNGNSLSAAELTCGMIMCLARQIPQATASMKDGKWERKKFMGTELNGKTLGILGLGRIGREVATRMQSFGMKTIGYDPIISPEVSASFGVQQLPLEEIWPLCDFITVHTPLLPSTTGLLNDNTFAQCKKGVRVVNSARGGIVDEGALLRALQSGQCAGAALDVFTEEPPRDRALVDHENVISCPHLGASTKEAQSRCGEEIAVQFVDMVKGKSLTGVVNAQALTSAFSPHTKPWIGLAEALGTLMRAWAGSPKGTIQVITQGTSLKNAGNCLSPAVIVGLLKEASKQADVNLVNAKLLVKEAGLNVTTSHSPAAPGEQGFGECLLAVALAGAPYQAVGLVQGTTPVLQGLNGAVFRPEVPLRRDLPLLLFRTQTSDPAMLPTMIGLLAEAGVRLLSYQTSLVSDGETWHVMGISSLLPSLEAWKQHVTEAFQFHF
# Sequence of GPD1 (P21695 whole entry): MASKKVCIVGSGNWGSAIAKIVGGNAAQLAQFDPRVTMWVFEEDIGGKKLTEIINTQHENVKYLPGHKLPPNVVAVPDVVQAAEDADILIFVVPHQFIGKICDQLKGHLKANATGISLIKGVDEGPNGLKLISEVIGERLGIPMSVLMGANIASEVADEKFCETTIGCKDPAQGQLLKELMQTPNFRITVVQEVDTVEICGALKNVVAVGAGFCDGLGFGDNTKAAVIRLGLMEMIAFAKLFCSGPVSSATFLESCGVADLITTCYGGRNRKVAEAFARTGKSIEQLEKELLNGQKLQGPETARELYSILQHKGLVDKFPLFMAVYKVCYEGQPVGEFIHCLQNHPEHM
smiles,measurement,setting,value
"Cc1cc(C)nc(NC(=S)N2CCN(Cc3ccc(C(F)(F)F)cc3)CC2)c1 [Compound 267, N-(4,6-dimethylpyridin-2-yl)-4-(4-(trifluoromethyl)benzyl)piperazine-1-carbothioamide]",intracellular serine levels,[1],reduced
same,fraction of necrosis,[2],increases the fraction of necrosis
same,growth and weight of xenografts,[2],reduced the growth and weight
same,"cross-reactivity, modulation of activity",panel of 168 GPCRs,< 30%
same,activity against a panel of other dehydrogenases,[3],inactive
same,body weight of mice,[4],did not lose weight
same,growth or weight of xenografts,[5],did not affect the growth or weight
same,IC50,GPD1,≥ 100 µM
same,reduction of potency of PHGDH inhibition by C234S mutation,C234S PHGDH,approximately 3 fold
